Test results from patent US10508104B2, “6-hydroxy-5-(phenyl/heteroarylsulfonyl)pyrimidin-4(1H)-one as APJ agonists” (Bristol-Myers Squibb Company, priority 2016, dated 2019).

Molecular target: human APJ receptor (Homo sapiens (Human), UniProt P35414)
Test: Intracellular cAMP accumulation assay (APJ hcAMP, HTRF)
Type: cell-based
Conditions: HEK293 cells stably expressing human APJ receptor; inhibition of forskolin-mediated cAMP production; read-out: Human APJ cAMP EC50 Potency range
How it was run: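 HEK293 cells stably expressing human APJ, 5,000 per well, incubated 30 min at rt with compound, […] and 2 μM forskolin. cAMP measured by HTRF against a cAMP standard curve as inhibition of forskolin-driven production. EC50 from variable-slope sigmoidal fit.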

Sequence of human APJ receptor (P35414 whole entry): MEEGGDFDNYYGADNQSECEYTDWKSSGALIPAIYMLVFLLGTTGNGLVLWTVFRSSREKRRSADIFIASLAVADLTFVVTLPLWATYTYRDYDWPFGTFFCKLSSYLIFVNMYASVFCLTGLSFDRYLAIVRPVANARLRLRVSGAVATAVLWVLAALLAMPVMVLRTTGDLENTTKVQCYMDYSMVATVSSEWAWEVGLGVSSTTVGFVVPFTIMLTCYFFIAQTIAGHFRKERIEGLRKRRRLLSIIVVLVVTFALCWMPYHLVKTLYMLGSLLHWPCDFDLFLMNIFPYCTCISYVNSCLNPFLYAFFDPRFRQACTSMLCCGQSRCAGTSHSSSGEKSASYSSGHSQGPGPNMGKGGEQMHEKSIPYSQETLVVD

| EC50 [nM] | Compound |
| --- | --- |
| 0.01 to 10 | CCCCc1nc(=O)c(S(=O)(=O)c2ccc(-c3ccnc(F)c3C)cc2)c(O)n1[C@H]1CCc2c(C#N)cccc21 [Example 537, (1S)-1-{2-butyl-5-[4-(2-fluoro-3-methylpyridin-4-yl)benzenesulfonyl]-6-hydroxy-4-oxo-1,4-dihydropyrimidin-1-yl}-2,3-dihydro-1H-indene-4-carbonitrile] |
| 0.01 to 10 | CCCCc1nc(=O)c(S(=O)(=O)c2ccc(-c3cccc(F)c3C(N)=O)cc2)c(O)n1[C@@H](CC)c1cccc(C#N)c1 [Example 538, 4′-({2-butyl-1-[(1S)-1-(3-cyanophenyl)propyl]-6-hydroxy-4-oxo-1,4-dihydropyrimidin-5-yl}sulfonyl)-3-fluoro-[1,1′-biphenyl]-2-carboxamide] |
| 0.01 to 10 | CCCCc1nc(=O)c(S(=O)(=O)c2ccc(-c3cccnc3C)cc2)c(O)n1[C@H]1CCc2c(C#N)cccc21 [Example 539, (1S)-1-{2-butyl-6-hydroxy-5-[4-(2-methylpyridin-3-yl)benzenesulfonyl]-4-oxo-1,4-dihydropyrimidin-1-yl}-2,3-dihydro-1H-indene-4-carbonitrile] |
| 0.01 to 10 | CCCCc1nc(=O)c(S(=O)(=O)c2ccc(-c3ccc(F)nc3C)cc2)c(O)n1[C@H]1CCc2c(C#N)cccc21 [Example 540, (1S)-1-{2-butyl-5-[4-(6-fluoro-2-methylpyridin-3-yl)benzenesulfonyl]-6-hydroxy-4-oxo-1,4-dihydropyrimidin-1-yl}-2,3-dihydro-1H-indene-4-carbonitrile] |
| 0.01 to 10 | CCCCc1nc(=O)c(S(=O)(=O)c2ccc(-c3ccncc3C)cc2)c(O)n1[C@H]1CCc2c(C#N)cccc21 [Example 541, (1S)-1-{2-butyl-6-hydroxy-5-[4-(3-methylpyridin-4-yl)benzenesulfonyl]-4-oxo-1,4-dihydropyrimidin-1-yl}-2,3-dihydro-1H-indene-4-carbonitrile] |
| 10 to 100 | CCCCc1nc(=O)c(S(=O)(=O)c2ccc(-c3ccnc(F)c3C)cc2)c(O)n1[C@@H]1CCc2ccc(C#N)cc21 [Example 542, (3R)-3-{2-butyl-5-[4-(2-fluoro-3-methylpyridin-4-yl)benzenesulfonyl]-6-hydroxy-4-oxo-1,4-dihydropyrimidin-1-yl}-2,3-dihydro-1H-indene-5-carbonitrile] |
| 10 to 100 | CCCCc1nc(=O)c(S(=O)(=O)c2ccc(-c3cccc(C(=O)NC)c3)cc2)c(O)n1[C@@H]1CCc2ccc(C#N)cc21 [Example 543, 4′-({2-butyl-1-[(1R)-6-cyano-2,3-dihydro-1H-inden-1-yl]-6-hydroxy-4-oxo-1,4-dihydropyrimidin-5-yl}sulfonyl)-N-methyl-[1,1′-biphenyl]-3-carboxamide] |
| 10 to 100 | CCCCc1nc(=O)c(S(=O)(=O)c2ccc(-c3ccncc3C)cc2)c(O)n1[C@@H]1CCc2ccc(C#N)cc21 [Example 544, (3R)-3-{2-butyl-6-hydroxy-5-[4-(3-methylpyridin-4-yl)benzenesulfonyl]-4-oxo-1,4-dihydropyrimidin-1-yl}-2,3-dihydro-1H-indene-5-carbonitrile] |
| 0.01 to 10 | CCCCc1nc(=O)c(S(=O)(=O)c2ccc(-c3ccc(C(=O)NC)cc3F)cc2)c(O)n1[C@@H](CC)c1cccc(C#N)c1 [Example 545, 4′-({2-butyl-1-[(1S)-1-(3-cyanophenyl)propyl]-6-hydroxy-4-oxo-1,4-dihydropyrimidin-5-yl}sulfonyl)-2-fluoro-N-methyl-[1,1′-biphenyl]-4-carboxamide] |
| 100 to 300 | CCCCc1nc(=O)c(S(=O)(=O)c2ccc(-c3ccc(F)nc3C)cc2)c(O)n1[C@@H]1CCc2ccc(C#N)cc21 [Example 546, (3R)-3-{2-butyl-5-[4-(6-fluoro-2-methylpyridin-3-yl)benzenesulfonyl]-6-hydroxy-4-oxo-1,4-dihydropyrimidin-1-yl}-2,3-dihydro-1H-indene-5-carbonitrile] |
